Holding throughout (assay type): cell-based
Experiment [1] deals with T1, IKZF2 (Helios) (Homo sapiens, UniProt Q96SW2+Q9UKS7).
T1 construct: Leu-Asp junction (codons ctcgac before the linker); mScarlet (behind P2A) (C, cleaved yes); expressed in transfected cells
Kind of experiment: IKZF2 reporter degradation assay (HEK 293T IKZF2-mNeonGreen reporter cell line). The note with it: HEK-293T, 24 h, @ 1 μM, HEK 293T IKZF2-mNeonGreen reporter, 24 hours incubation. Put shortly:
(§1)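 Cells were seeded overnight and then dosed with DMSO dilutions of compound. After 24 h, the plates were imaged live in the FITC and TRITC channels. The fraction of reporter-positive cells was plotted and fitted to a four-parameter logistic curve to give DC50.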

The target in experiment [2] is T2, IKZF2 (Helios) (Homo sapiens, UniProt Q9UKS7).
T2 construct: Leu-Asp junction (codons ctcgac before the linker); mScarlet (behind P2A) (C, cleaved yes); expressed in transfected cells
The description is as above. The note with it: HEK 293T IKZF2-mNeonGreen reporter, 24 hours incubation. In short, it runs like this:
as §1

The target in a further experiment is T3, IKZF3 (Aiolos) (Homo sapiens, UniProt Q9UKT9).
T3 construct: Leu-Asp junction (codons ctcgac before the linker); mScarlet (behind P2A) (C, cleaved yes); expressed in transfected cells
Kind of experiment: IKZF3 reporter degradation assay (HEK 293T IKZF3-mNeonGreen reporter cell line). The conditions noted are these: HEK 293T IKZF3-mNeonGreen reporter, 24 hours incubation; for inhibition at 1 µM: HEK-293T, 24 h. Put shortly:
as §1

Another experiment has as its target T4, GSPT1 (Homo sapiens, UniProt P15170).
T4 construct: HiBiT-tagged cells were generated using CRISPR-Cas12a technology; endogenous in cells; host or cells: HEK293 (endogenous GSPT1 locus edited with HiBiT knock-in)
Briefly: GSPT1 reporter degradation assay (HEK293 hGSPT1 HiBiT-tagged cells). The conditions noted are these: 24 hour incubation. The procedure: HEK293_hGSPTl_HiBiT-tagged cells were generated using CRISPR-Cas12a technology. Briefly, ˜400,000 HEK293 cells were transiently co-transfected with precomplexed ribonuclear proteins (RNPs) consisting of 80 pmol of crRNA (IDT), 62 pmol of Cas12a protein (IDT), 3 μg of ssODN donor (IDT; Alt® modifications), 78 pmol of electroporation enhancer (IDT), and 200 ng of pMaxGFP (Lonza). The transfection was performed via nucleofection (Lonza, 4D-Nucleofector X-unit) using solution P3 and program CM-130 in a ([…]) cuvette. Five days post-nucleofection, cells were single-cell-sorted for GFP+(transfected) cells by FACs in 96-well plates and clonally selected. Clones were screened and verified for the desired modification via targeted deep sequencing using gene-specific primers with partial Illumina adapter overhangs as previously described. In brief, clonal cell pellets were harvested, lysed, and used to generate gene-specific amplicons with partial Illumina adapters in PCR #1. Amplicons were indexed in PCR #2 and pooled with other targeted amplicons for other loci to create sequence diversity. Additionally, 10% PhiX sequencing control V3 (Illumina) was added to the pooled amplicon library prior to running the sample on a Miseq Sequencer System (Illumina) to generate paired 2×250 bp reads. Samples were demultiplexed using the index sequences, fastq files were generated, and NGS analysis was performed using CRIS.py. Final clones were authenticated using the PowerPlex fusion system (Promega) and tested negative for mycoplasma by the MycoAlertTMPlus mycoplasma detection kit (Lonza).
Editing construct sequences and screening primers are outlined below (sequence from 5′ to 3′). hGSPT1Cas12acrRNA, CAGE635.GSPT1.g1: […]; CAGE635.g1.anti.ssODN: ttcctcacagtattgtgcagggtcatcaagaaaatgctta[…] CAGCCGCTCACgtcCttctctggaaccagtttcagaacttttccaattgcaatggtcttacctagaaatgaaattttaa (HiBiT tag and silent blocking modifications to prevent Cas12a recutting after integration are in upper case); CAGE635.hGSPT1.DS.F: […]; CAGE635.hGSPT1.DS.R: GTGAA GTAGGCTTCTGCAGTC.
The GSPT1 degradation assay was carried out by harvesting the HEK 293T reporter cell lines and resuspending the cells in media formulated for reduced background fluorescence (FluoroBrite; Thermo Fisher). The respective cell lines were seeded at a density of 8,000 cells/well into white-opaque 384-well optical grade assay tissue culture plates (Greiner 781080-20). The cells were incubated overnight at 37° C. to allow for attachment to the assay plate. Dilutions of the compounds were prepared in DMSO from 10 mM compound stocks. Test compounds were added in a 10-point dilution series (typically 10 μM to 100 pM) using a TECAN D300e Digital Dispenser with an upper limit of 0.5% final DMSO. Plates were centrifuged at 320×g for 2 minutes at room temperature, and subsequently incubated at 37° C.
After 24 hour incubation with the compounds, the plates were allowed to cool to room temperature for 10 minutes. 30 μL of HiBiT lytic buffer+1:50 HiBiT substrate Solution were added to each well. Plates were centrifuged at 320×g for 2 minutes at room temperature and then incubated with shaking at room temperature for 10 minutes covered with foil. Plates were read on a CLARIOstar microplate reader (BMG LabTech), measuring at 450 nm (donor emission) and 610 nm or 630 nm (acceptor emission). The DC50 values were determined by regression to best fit four-parameter logistic curves using GraphPad Prism.
On the technique in general: HiBiT is a short tag that completes a luciferase, so light tracks the accessible tagged protein.

This passage reports inhibition and DC50 results from US20250100996A1, “HETEROCYCLOALKYL AND HETEROARYL COMPOUNDS AND PHARMACEUTICAL COMPOSITIONS THAT MODULATE IKZF2” (Plexium, Inc., priority 2021, published 2025).

T2 sequence (Q9UKS7 whole entry): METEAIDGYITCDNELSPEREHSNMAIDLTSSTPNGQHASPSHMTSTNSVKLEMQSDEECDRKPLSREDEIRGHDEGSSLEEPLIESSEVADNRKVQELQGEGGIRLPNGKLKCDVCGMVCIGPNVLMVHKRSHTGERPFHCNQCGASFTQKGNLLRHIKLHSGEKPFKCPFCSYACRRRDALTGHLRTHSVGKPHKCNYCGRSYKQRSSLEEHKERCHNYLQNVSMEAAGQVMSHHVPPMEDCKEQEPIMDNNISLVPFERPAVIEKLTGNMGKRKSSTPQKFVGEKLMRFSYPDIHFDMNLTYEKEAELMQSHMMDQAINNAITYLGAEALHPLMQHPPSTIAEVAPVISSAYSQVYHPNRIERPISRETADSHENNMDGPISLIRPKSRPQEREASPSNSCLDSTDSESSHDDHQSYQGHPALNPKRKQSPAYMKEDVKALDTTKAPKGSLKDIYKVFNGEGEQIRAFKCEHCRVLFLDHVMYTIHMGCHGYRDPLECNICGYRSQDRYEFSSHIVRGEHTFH
T2 sequence (Q96SW2 whole entry, further chain): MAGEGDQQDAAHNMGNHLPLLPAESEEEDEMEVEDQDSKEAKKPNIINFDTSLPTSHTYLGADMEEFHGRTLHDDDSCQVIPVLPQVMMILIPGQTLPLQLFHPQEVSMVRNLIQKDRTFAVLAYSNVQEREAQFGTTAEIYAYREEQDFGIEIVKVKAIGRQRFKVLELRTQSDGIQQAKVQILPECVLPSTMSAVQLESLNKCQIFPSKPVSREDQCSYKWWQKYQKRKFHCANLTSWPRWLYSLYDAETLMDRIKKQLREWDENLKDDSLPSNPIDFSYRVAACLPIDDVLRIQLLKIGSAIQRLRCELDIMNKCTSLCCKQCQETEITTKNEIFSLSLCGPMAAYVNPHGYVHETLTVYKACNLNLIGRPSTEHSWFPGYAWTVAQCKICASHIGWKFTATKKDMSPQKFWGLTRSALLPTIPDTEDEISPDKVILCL
T2 sequence (Q16531 whole entry partner): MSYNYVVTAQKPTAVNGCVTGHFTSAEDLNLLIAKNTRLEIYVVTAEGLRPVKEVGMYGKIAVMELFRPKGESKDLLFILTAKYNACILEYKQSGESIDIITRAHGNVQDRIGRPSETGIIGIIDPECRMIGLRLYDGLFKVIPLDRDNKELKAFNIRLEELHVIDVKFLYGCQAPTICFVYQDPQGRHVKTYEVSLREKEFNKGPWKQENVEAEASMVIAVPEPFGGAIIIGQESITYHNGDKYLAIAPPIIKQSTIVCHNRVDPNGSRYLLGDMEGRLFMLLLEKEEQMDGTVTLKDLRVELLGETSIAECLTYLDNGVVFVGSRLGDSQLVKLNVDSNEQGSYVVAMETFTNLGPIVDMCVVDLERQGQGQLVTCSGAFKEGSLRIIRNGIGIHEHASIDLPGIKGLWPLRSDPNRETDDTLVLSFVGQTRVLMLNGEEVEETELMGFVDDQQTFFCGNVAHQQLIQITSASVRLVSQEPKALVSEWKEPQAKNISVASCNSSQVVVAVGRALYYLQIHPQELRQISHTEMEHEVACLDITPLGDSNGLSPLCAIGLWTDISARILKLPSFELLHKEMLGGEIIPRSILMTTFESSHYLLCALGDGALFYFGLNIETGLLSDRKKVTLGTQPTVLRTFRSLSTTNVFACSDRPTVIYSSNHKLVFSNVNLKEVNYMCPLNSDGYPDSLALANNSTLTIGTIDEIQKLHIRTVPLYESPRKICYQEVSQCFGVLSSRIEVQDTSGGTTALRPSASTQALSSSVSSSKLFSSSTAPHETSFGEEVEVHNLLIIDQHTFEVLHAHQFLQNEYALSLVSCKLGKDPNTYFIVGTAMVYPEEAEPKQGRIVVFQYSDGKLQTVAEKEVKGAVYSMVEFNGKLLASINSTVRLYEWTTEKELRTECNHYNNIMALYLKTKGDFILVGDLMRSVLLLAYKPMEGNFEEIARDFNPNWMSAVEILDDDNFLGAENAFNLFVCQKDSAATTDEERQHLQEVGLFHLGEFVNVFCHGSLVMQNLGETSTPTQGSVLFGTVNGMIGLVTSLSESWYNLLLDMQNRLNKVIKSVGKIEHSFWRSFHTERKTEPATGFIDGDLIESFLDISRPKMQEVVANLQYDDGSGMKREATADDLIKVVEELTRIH
T1 sequence (Q9UKS7 whole entry): as the sequence (Q9UKS7 whole entry) above
T1 sequence (Q96SW2 whole entry): as the sequence (Q96SW2 whole entry, further chain) above
T1 sequence (Q16531 whole entry partner): as the sequence (Q16531 whole entry partner) above
T3 sequence (Q96SW2 whole entry partner): as the sequence (Q96SW2 whole entry, further chain) above
T3 sequence (Q16531 whole entry partner): as the sequence (Q16531 whole entry partner) above
T3 sequence (Q9UKT9 whole entry): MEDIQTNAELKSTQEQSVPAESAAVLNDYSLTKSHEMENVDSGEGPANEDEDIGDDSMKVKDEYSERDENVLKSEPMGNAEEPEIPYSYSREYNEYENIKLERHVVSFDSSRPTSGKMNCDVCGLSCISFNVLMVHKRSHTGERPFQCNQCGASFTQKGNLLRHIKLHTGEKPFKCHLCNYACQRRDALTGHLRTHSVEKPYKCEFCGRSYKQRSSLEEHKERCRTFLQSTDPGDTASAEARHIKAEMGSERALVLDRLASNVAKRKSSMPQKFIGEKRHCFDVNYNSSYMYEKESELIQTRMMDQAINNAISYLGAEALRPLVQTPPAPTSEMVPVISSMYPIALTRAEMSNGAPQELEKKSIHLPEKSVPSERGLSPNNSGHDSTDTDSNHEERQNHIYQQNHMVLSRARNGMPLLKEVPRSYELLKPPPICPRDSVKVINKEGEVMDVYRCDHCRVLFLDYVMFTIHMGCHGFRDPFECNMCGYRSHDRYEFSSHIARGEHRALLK
T4 sequence (Q96SW2 whole entry partner): as the sequence (Q96SW2 whole entry, further chain) above
T4 sequence (Q16531 whole entry partner): as the sequence (Q16531 whole entry partner) above
T4 sequence (P15170 whole entry): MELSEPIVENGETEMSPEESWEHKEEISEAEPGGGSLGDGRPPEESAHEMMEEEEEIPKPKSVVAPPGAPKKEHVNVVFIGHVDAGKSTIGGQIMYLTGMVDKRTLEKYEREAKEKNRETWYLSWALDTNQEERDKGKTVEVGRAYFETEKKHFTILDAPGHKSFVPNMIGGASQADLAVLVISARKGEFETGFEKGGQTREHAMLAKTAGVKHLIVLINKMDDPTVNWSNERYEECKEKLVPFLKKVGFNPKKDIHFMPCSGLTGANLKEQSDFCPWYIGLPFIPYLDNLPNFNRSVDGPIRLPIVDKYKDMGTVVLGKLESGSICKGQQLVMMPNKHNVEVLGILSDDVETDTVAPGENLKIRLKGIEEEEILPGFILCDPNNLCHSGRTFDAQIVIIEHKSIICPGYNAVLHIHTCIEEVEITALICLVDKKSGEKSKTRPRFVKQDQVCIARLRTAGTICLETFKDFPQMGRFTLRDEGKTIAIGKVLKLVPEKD

With `CC12CC(C(=O)N3CCC(C4CN([C@H]5CCCC[C@@H]5Oc5ccc6c(c5)CN(C5CCC(=O)NC5=O)C6=O)C4)CC3)(C1)C2` (stereo partly drawn) [Compound 28-A, 3-(5-(((1S,2S)-2-(3-(1-(3-methylbicyclo[1.1.1]pentane-1-carbonyl)piperidin-4-yl)azetidin-1-yl)cyclohexyl)oxy)-1-oxoisoindolin-2-yl)piperidine-2,6-dione], the inhibition (as a rule, how much of the control response was suppressed) at 1 µM worked out at 82.5% at IKZF2 (Helios) [1] and 67.5% against IKZF3 (Aiolos). For the same molecule, the DC50 (in general, the concentration at which degradation of the target reaches its halfway point) on IKZF2 (Helios) [2] was 0.002 µM; on IKZF3 (Aiolos), 0.013 µM; at GSPT1 it was above 30 µM.

Regarding `O=C1CCC(N2Cc3cc(O[C@H]4CCCC[C@@H]4N4CC(C5CCN(C(=O)C6CC(F)(F)C6)CC5)C4)ccc3C2=O)C(=O)N1` (stereo partly drawn) [Compound 32-A, 3-(5-(((1S,2S)-2-(3-(1-(3,3-difluorocyclobutane-1-carbonyl)piperidin-4-yl)azetidin-1-yl)cyclohexyl)oxy)-1-oxoisoindolin-2-yl)piperidine-2,6-dione], the inhibition at 1 µM worked out at 84.7% against IKZF2 (Helios) [1] and 24.1% against IKZF3 (Aiolos). The DC50 was 0.001 µM on IKZF2 (Helios) [2], 0.071 µM at IKZF3 (Aiolos) and above 30 µM on GSPT1.

`O=C1CCC(N2Cc3cc(O[C@H]4CCCC[C@@H]4N4CC(C5CCOC5)C4)ccc3C2=O)C(=O)N1` (stereo partly drawn) [Compound 14-A, 3-(1-oxo-5-(((1S,2S)-2-(3-(tetrahydrofuran-3-yl)azetidin-1-yl)cyclohexyl)oxy)isoindolin-2-yl)piperidine-2,6-dione] had an inhibition at 1 µM against IKZF2 (Helios) [1] of 67.4%. The DC50 is 0.028 µM at IKZF2 (Helios) [2], above 30 µM at IKZF3 (Aiolos) and above 30 µM at GSPT1.

For `N#CC1(C(=O)N2CCC(C3CN([C@H]4CCCC[C@@H]4Oc4ccc5c(c4)CN(C4CCC(=O)NC4=O)C5=O)C3)CC2)CC1` (stereo partly drawn) [Compound 27-A, 1-(4-(1-((1S,2S)-2-((2-(2,6-dioxopiperidin-3-yl)-1-oxoisoindolin-5-yl)oxy)cyclohexyl)azetidin-3-yl)piperidine-1-carbonyl)cyclopropane-1-carbonitrile], the results for the inhibition at 1 µM on IKZF2 (Helios) [1] and against IKZF3 (Aiolos) were 84.6% and 44%, respectively. The figures for the DC50 at IKZF2 (Helios) [2], at IKZF3 (Aiolos) and on GSPT1 were 0.008 µM, 0.11 µM and above 30 µM, respectively.

Molecule `CC1(C(=O)N2CCC(C3CN([C@H]4CCCC[C@@H]4Oc4ccc5c(c4)CN(C4CCC(=O)NC4=O)C5=O)C3)CC2)COC1` (stereo partly drawn) [Compound 29-A, 3-(5-(((1S,2S)-2-(3-(1-(3-methyloxetane-3-carbonyl)piperidin-4-yl)azetidin-1-yl)cyclohexyl)oxy)-1-oxoisoindolin-2-yl)piperidine-2,6-dione] showed an inhibition at 1 µM at IKZF2 (Helios) [1] of 83.2%. Also, the 50% degradation concentration (DC50) on IKZF2 (Helios) [2] was 0.011 µM; on IKZF3 (Aiolos), above 30 µM; on GSPT1, above 30 µM.

For the molecule `CC1CC1C(=O)N1CCC(C2CN([C@H]3CCCC[C@@H]3Oc3ccc4c(c3)CN(C3CCC(=O)NC3=O)C4=O)C2)CC1` (stereo partly drawn) [Compound 35-A, 3-(5-(((1S,2S)-2-(3-(1-(2-methylcyclopropane-1-carbonyl)piperidin-4-yl)azetidin-1-yl)cyclohexyl)oxy)-1-oxoisoindolin-2-yl)piperidine-2,6-dione], the inhibition at 1 µM on IKZF2 (Helios) [1] was found to be 88.2%; at IKZF3 (Aiolos), 23.5%. Besides, the half-maximal degradation concentration (DC50) on IKZF2 (Helios) [2] was 0.001 µM; on IKZF3 (Aiolos), 8.07 µM; on GSPT1 it was above 30 µM.

As for `O=C1CCC(N2Cc3cc(O[C@H]4CCCC[C@@H]4N4CC(C5CCN(C(=O)C6(F)CC6)CC5)C4)ccc3C2=O)C(=O)N1` (stereo partly drawn) [Compound 42-A, 3-(5-(((1S,2S)-2-(3-(1-(1-fluorocyclopropane-1-carbonyl)piperidin-4-yl)azetidin-1-yl)cyclohexyl)oxy)-1-oxoisoindolin-2-yl)piperidine-2,6-dione], the figures for the inhibition at 1 µM at IKZF2 (Helios) [1] and against IKZF3 (Aiolos) were 87.3% and 31%, respectively. Further, the results for the half-maximal degradation concentration (DC50) on IKZF2 (Helios) [2], at IKZF3 (Aiolos) and on GSPT1 were 0.001 µM, 0.021 µM and above 30 µM, respectively.

Consider `O=C1CCC(N2Cc3cc(O[C@H]4CCCC[C@@H]4N4CC(C5CCN(C(=O)CC6CC6)CC5)C4)ccc3C2=O)C(=O)N1` (stereo partly drawn) [Compound 34-A, 3-(5-(((1S,2S)-2-(3-(1-(2-cyclopropylacetyl)piperidin-4-yl)azetidin-1-yl)cyclohexyl)oxy)-1-oxoisoindolin-2-yl)piperidine-2,6-dione], for which the inhibition at 1 µM came to 88% against IKZF2 (Helios) [1] and 24.9% on IKZF3 (Aiolos). In addition, the 50% degradation concentration (DC50) was 0.002 µM on IKZF2 (Helios) [2], 0.544 µM at IKZF3 (Aiolos) and above 30 µM at GSPT1.

`N#CC1(C(=O)N2CCC(C3CN([C@H]4CCCC[C@@H]4Oc4ccc5c(c4)CN(C4CCC(=O)NC4=O)C5=O)C3)CC2)CCC1` (stereo partly drawn) [Compound 30-A, 1-(4-(1-((1S,2S)-2-((2-(2,6-dioxopiperidin-3-yl)-1-oxoisoindolin-5-yl)oxy)cyclohexyl)azetidin-3-yl)piperidine-1-carbonyl)cyclobutane-1-carbonitrile]: the inhibition at 1 µM turned out to be 84.4% against IKZF2 (Helios) [1] and 63.4% on IKZF3 (Aiolos). For the same molecule, the DC50 at IKZF2 (Helios) [2] is 0.0005 µM; at IKZF3 (Aiolos), 0.014 µM; on GSPT1, above 30 µM.

Regarding `CC1(C(=O)N2CCC(C3CN([C@H]4CCCC[C@@H]4Oc4ccc5c(c4)CN(C4CCC(=O)NC4=O)C5=O)C3)CC2)CC1` (stereo partly drawn) [Compound 31-A, 3-(5-(((1S,2S)-2-(3-(1-(1-methylcyclopropane-1-carbonyl)piperidin-4-yl)azetidin-1-yl)cyclohexyl)oxy)-1-oxoisoindolin-2-yl)piperidine-2,6-dione], the inhibition at 1 µM worked out at 88.2% on IKZF2 (Helios) [1] and 26.2% against IKZF3 (Aiolos). Besides, the 50% degradation concentration (DC50) at IKZF2 (Helios) [2] is 0.0001 µM; at IKZF3 (Aiolos), 0.061 µM; on GSPT1 it was above 30 µM.

For the molecule `O=C1CCC(N2Cc3cc(O[C@H]4CCCC[C@@H]4N4CC(c5ccc6cccnc6c5)C4)ccc3C2=O)C(=O)N1` (stereo partly drawn) [Compound 87-B, 3-(1-oxo-5-(((1S,2S)-2-(3-(quinolin-7-yl)azetidin-1-yl)cyclohexyl)oxy)isoindolin-2-yl)piperidine-2,6-dione], at 1 µM the inhibition against IKZF2 (Helios) [1] was 87.5%. Also, the results for the half-maximal degradation concentration (DC50) at IKZF2 (Helios) [2], on IKZF3 (Aiolos) and at GSPT1 were 0.004 µM, above 30 µM and above 30 µM, respectively.

`CC1(C(=O)N2CCC(C3CN([C@H]4CCCC[C@@H]4Oc4ccc5c(c4)CN(C4CCC(=O)NC4=O)C5=O)C3)CC2)CCCC1` (stereo partly drawn) [Compound 33-A, 3-(5-(((1S,2S)-2-(3-(1-(1-methylcyclopentane-1-carbonyl)piperidin-4-yl)azetidin-1-yl)cyclohexyl)oxy)-1-oxoisoindolin-2-yl)piperidine-2,6-dione]: the inhibition at 1 µM on IKZF2 (Helios) [1] was found to be 88.4%; against IKZF3 (Aiolos) it was 60.8%. Moreover, the half-maximal degradation concentration (DC50) was 0.006 µM at IKZF3 (Aiolos) and above 30 µM at GSPT1.

For `O=C1CCC(N2Cc3cc(O[C@H]4CCCC[C@@H]4N4CC(C5CCOCC5F)C4)ccc3C2=O)C(=O)N1` (stereo partly drawn) [Compound 55-A, 3-(5-(((1S,2S)-2-(3-(3-fluorotetrahydro-2H-pyran-4-yl)azetidin-1-yl)cyclohexyl)oxy)-1-oxoisoindolin-2-yl)piperidine-2,6-dione], the inhibition at 1 µM at IKZF2 (Helios) [1] was 83.8%. The DC50 is 0.005 µM at IKZF2 (Helios) [2], above 30 µM at IKZF3 (Aiolos) and above 30 µM at GSPT1.
